The results in this text go back to ChEMBL document CHEMBL1944604, “Aminopurine based JNK inhibitors for the prevention of ischemia reperfusion injury” (Bioorg Med Chem Lett, 2012).

In brackets after ≈: the same amount, converted by molar mass.

Series [1] deals with Mitogen-activated protein kinase 8 (Homo sapiens, UniProt P45983). Description: Inhibition of full length Hexa-His-tagged JNK1 using GST-tagged cJun and [gamma33P]ATP as substrate after 60 mins by scintillation counting.
In series [2] the target is Mitogen-activated protein kinase 9 (Homo sapiens, UniProt P45984). Description: Inhibition of full length Hexa-His-tagged JNK2 using GST-tagged cJun and [gamma33P]ATP as substrate after 60 mins by scintillation counting.
Series [3] has as its target Mitogen-activated protein kinase 10 (Homo sapiens, UniProt P53779). Nature of the series: Inhibition of full length Hexa-His-tagged JNK3 using GST-tagged cJun and [gamma33P]ATP as substrate after 60 mins by scintillation counting.
Series [4] has as its target Mitogen-activated protein kinase 14 (Homo sapiens, UniProt Q16539). Nature of the series: Inhibition of p38alpha using MBP and [gamma33P]ATP as substrate after 60 mins by scintillation counting.
Series [5] can be described thus: Thermodynamic solubility of the compound at pH 5. It counts as physicochemical. As to conditions: buffer, read-out: Therm_solubility.
The target in series [6] is c-Jun N-terminal kinase, JNK (Homo sapiens, UniProt P45983+P53779+P45984). Nature of the series: Inhibition of JNK-mediated cJun phosphorylation in anisomysin-stimulated human Jurkat T cells pretreated for 30 mins before anisomysin stimulation measured after 10 mins by DELFIA assay. It counts as cell-based.
A short description of series [7]: Clearance in rat at 2 to 10 mg/kg, iv. Details: dose 2-10 mg/kg, route intravenous. It counts as ADME, organism-based. As to conditions: in vivo.
A short description of series [8]: Volume of distribution at steady state in rat at 2 to 10 mg/kg, iv. It counts as ADME, organism-based. Details: dose 2-10 mg/kg, route intravenous. The conditions noted are these: in vivo, read-out: Vdss.
A short description of series [9]: Aqueous solubility of the compound at pH 5. In kind it is physicochemical.
The nature of series [10]: Aqueous solubility of the compound at pH 7.4. In kind it is physicochemical.
The nature of series [11]: Metabolic stability in rat liver S9 fraction assessed as compound remaining after 60 mins. In kind it is ADME, subcellular. The conditions noted are these: read-out: Stability.
A short description of series [12]: Metabolic stability in human liver S9 fraction assessed as compound remaining after 60 mins. It counts as ADME, subcellular. As to conditions: read-out: Stability.
Series [13] in a line: Half life in human microsomes. It counts as ADME, Microsome.
A short description of series [14]: Half life in rat microsomes. It counts as ADME, Microsome.

Mitogen-activated protein kinase 10, sequence (P53779 whole entry): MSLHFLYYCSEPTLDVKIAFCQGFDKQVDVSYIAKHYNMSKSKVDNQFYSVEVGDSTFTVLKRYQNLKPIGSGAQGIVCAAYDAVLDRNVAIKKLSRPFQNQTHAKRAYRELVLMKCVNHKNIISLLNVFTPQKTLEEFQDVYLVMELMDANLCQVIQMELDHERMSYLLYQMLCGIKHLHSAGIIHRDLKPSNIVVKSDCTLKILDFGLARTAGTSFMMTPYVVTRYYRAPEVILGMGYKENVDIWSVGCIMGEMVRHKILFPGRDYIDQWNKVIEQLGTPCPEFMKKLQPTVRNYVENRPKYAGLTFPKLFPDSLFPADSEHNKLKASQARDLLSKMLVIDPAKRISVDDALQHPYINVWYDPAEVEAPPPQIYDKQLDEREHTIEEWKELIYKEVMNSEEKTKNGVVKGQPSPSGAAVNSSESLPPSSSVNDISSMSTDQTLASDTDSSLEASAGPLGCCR
Mitogen-activated protein kinase 8, sequence (P45983 whole entry): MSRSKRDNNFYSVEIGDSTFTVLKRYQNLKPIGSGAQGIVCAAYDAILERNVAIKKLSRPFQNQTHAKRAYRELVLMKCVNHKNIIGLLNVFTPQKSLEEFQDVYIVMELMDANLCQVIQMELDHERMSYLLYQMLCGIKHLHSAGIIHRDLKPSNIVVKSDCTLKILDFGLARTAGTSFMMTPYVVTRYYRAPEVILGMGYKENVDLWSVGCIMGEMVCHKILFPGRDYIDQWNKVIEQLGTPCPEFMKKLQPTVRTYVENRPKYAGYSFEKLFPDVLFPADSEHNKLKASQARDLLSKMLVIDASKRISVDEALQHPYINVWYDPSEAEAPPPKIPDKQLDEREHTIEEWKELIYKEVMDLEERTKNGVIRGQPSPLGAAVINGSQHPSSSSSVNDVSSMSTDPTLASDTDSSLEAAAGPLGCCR
Mitogen-activated protein kinase 9, sequence (P45984 whole entry): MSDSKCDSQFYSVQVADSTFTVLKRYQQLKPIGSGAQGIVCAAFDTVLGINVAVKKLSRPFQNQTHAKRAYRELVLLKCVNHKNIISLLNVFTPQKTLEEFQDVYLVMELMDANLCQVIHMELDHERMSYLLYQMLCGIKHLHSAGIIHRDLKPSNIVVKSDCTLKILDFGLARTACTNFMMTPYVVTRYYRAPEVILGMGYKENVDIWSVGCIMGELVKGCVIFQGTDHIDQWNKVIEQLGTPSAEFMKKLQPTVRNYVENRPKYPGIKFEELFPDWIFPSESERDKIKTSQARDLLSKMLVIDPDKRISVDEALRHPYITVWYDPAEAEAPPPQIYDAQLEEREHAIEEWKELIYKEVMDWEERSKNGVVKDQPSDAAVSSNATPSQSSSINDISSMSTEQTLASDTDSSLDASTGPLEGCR
Mitogen-activated protein kinase 14, sequence (Q16539 whole entry): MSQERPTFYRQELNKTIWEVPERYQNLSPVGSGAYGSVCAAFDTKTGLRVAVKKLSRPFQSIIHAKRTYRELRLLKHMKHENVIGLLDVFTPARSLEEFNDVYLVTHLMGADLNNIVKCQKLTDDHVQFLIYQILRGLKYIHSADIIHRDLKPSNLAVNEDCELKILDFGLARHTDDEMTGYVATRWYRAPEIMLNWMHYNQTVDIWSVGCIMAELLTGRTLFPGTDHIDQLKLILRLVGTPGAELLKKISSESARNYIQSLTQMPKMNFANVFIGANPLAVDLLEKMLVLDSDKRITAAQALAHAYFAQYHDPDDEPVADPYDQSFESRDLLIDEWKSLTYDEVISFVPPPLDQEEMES

Turning to `COc1ccc(Nc2ncc3nc(Nc4ccccc4F)n([C@H]4CC[C@@H](C(N)=O)CC4)c3n2)cc1`, the IC50 – broadly, the concentration that inhibits the measured activity by half – in [1] was 180 nM; in [2], 22 nM; in series [3], 24 nM; in series [4], 240 nM.
The corresponding values for `CCNc1ncc2nc(Nc3ccccc3F)n(C3CCCC3)c2n1` are 1800 nM, 140 nM, 260 nM and 2600 nM.
For `N[C@H]1CC[C@H](Nc2ncc3nc(Nc4c(F)cc(F)cc4F)n(C4CCCC4)c3n2)CC1`, in series [5], the solubility thermodynamic is over 1000 µg/mL. Besides, the IC50 in series [1] was 150 nM; in series [2] it was 11 nM; in [3] it was 16 nM; in [4], 490 nM; in [6], 240 nM. For the same compound, the clearance – broadly, the rate of elimination divided by the concentration – in [7] amounted to 88 mL/min/kg. Besides, in series [8], the Vd amounted to 90 L/kg.
On to `Cl.N[C@H]1CC[C@H](Nc2ncc3nc(Nc4ccc(F)cc4F)n(C4CCCC4)c3n2)CC1`, for which, in series [9], the solubility (as a rule, how much of the substance goes into solution per volume) was determined as 5.7 µg/mL.
On to `Fc1ccccc1Nc1nc2cnc(NC3CCCCC3)nc2n1C1CCCC1`, for which the IC50 came out at 580 nM in series [1], 46 nM in [2], 50 nM in series [3] and 1500 nM in series [4].
In the case of `O[C@H]1CC[C@H](Nc2ncc3nc(Nc4ccccc4F)n(C4CCCC4)c3n2)CC1`, the IC50 in series [1] was 75 nM; in series [2], 10 nM; in [3], 12 nM; in series [4] it was 510 nM. This compound came in with a solubility in [10] of under 2.5 µg/mL.
As to `CCn1c(Nc2ccccc2F)nc2cnc(Nc3ccc(OC)cc3)nc21`, the IC50 in [1] was found to be 3600 nM; in series [2], 430 nM; in [3], 360 nM; in [4], 9300 nM.
For the compound `COc1ccc(Nc2ncc3nc(Nc4c(F)cccc4F)n(C4CCCC4)c3n2)cc1`, the IC50 in series [1] was found to be 1100 nM; in [2], 46 nM; in [3] it was 130 nM; in series [4], 3500 nM. Moreover, the remaining at 1 h in series [11] and in series [12] was over 70% in each case.
In the case of `COc1ccc(Nc2ncc3nc(Nc4ccc(F)cc4F)n(C4CCCC4)c3n2)cc1`, the IC50 worked out at 2500 nM in series [1], 130 nM in [2], 140 nM in series [3] and 1300 nM in [4]. The remaining at 1 h in [11] and in series [12] was over 70% in each case.
As for `COc1ccc(Nc2ncc3nc(Nc4ccccc4F)n(C4CCOCC4)c3n2)cc1`, the IC50 was 490 nM in series [1], 52 nM in series [2], 63 nM in series [3] and 2800 nM in series [4].
`COc1ccc(Nc2ncc3nc(Nc4ccccc4Cl)n(C4CCCC4)c3n2)cc1`: the IC50 in [1] was over 10000 nM; in series [2], over 10000 nM; in series [3], over 10000 nM; in series [4], over 30000 nM. In addition, the remaining at 1 h in [11] and in [12] was over 70% in each case.
As for `COc1ccc(Nc2ncc3nc(Nc4ccccc4F)n(C4CCCC4)c3n2)cc1`, the half-life (usually the time in which the quantity being followed falls by half) in [13] came out at 1.03 h; in [14], 1.68 h. Moreover, the IC50 in series [1] is 1100 nM; in series [2], 120 nM; in series [4] it was over 3000 nM. In series [10], this compound had a solubility of 447 µg/mL (≈ 1070 µM). Besides, the remaining at 1 h in [11] worked out at 35%; in series [12], 86%.
Regarding `COc1ccc(Nc2ncc3nc(Nc4ccccc4F)n([C@H]4CC[C@H](N)CC4)c3n2)cc1`, the IC50 in series [1] worked out at 2600 nM; in series [2], 240 nM; in series [3] it was 240 nM; in series [4], 210 nM.
With `COc1ccc(Nc2ncc3nc(Nc4ccccc4F)n(C(C)C)c3n2)cc1`, the IC50 in [1] came out at 840 nM; in series [2] it was 83 nM; in series [3], 96 nM; in [4] it was 2100 nM.
The matching figures for `COc1ccc(Nc2ncc3nc(Nc4ccccc4F)n(-c4ccccc4)c3n2)cc1`: over 10000 nM, 1000 nM, over 300 nM and over 3000 nM.
With `CNc1ncc2nc(Nc3ccccc3F)n(C3CCCC3)c2n1`, the IC50 was 6300 nM in [1], 360 nM in series [2], 680 nM in [3] and over 30000 nM in series [4].
The corresponding values for `COc1ccc(Nc2ncc3nc(Nc4ccccc4F)n([C@H]4CC[C@@H](O)CC4)c3n2)cc1` are 160 nM, 14 nM, 17 nM and 1600 nM.
For the compound `N[C@H]1CC[C@H](Nc2ncc3nc(Nc4ccccc4F)n(C4CCCC4)c3n2)CC1`, in series [5], the solubility thermodynamic amounted to 869 µg/mL (≈ 2120 µM). Besides, the IC50 came out at 230 nM in series [1]; 26 nM in series [2]; 31 nM in series [3]; 210 nM in [4]; 300 nM in [6].
Turning to `COc1ccc(Nc2ncc3nc(Nc4ccccc4)n(C4CCCC4)c3n2)cc1`, the IC50 in series [1] is over 10000 nM; in [2] it was 800 nM; in series [3] it was over 1000 nM; in [4], over 30000 nM. Besides, the remaining at 1 h in series [11] and in series [12] was over 70% in each case.
For `COc1ccc(Nc2ncc3nc(Nc4ccccc4F)n(C4CCCCC4)c3n2)cc1`, the IC50 was 2900 nM in series [1], 140 nM in [2], 360 nM in [3] and over 3000 nM in series [4].
For the compound `N[C@H]1CC[C@H](Nc2ncc3nc(Nc4c(F)cccc4F)n(C4CCCC4)c3n2)CC1`, in series [5], the solubility thermodynamic stood at 852 µg/mL (≈ 1990 µM). The IC50 came out at 91 nM in series [1]; 9 nM in [2]; 13 nM in [3]; 490 nM in series [4]; 210 nM in series [6]. In series [7], this compound came in with a clearance of 118 mL/min/kg. In series [8], the Vd worked out at 66 L/kg.
Consider `CC(C)Nc1ncc2nc(Nc3ccccc3F)n(C3CCCC3)c2n1`, for which the IC50 is 800 nM in series [1], 66 nM in [2], 110 nM in [3] and 1200 nM in series [4].
